Laboratory results as given in patent publication US7326689B2, “Pseudomycins useful against plant diseases” (Eli Lilly and Company, priority 2000, dated 2008).

Experiments:
Assay in all cases: Antifungal growth assay in potato dextrose broth, 24-well
Format in all cases: cell-based
Set-up in all cases: key: NI, no inhibition; p (partial), at least 50% inhibited
Sclerotinia sclerotiorum = conditions: 2x assays
Method: (§1) Fungi to be tested were propagated on potato dextrose agar (PDA) plates at room temperature. Stock solutions of pseudomycins and depsipeptide were suspended in dimethylsulfoxide (DMSO) (Sigma) at 5 mg/ml and stored at −20C. Serial dilutions of compounds were done the day of the experiment. All serial dilutions were made in DMSO. […] These are noted in the raw data section.
(§2) Assays were performed in 24-well cell culture clusters (Costar 3524), with 990 ul potato dextrose broth (PDB, Difco) and 10 ul of the compound to be tested in each well. Initial concentrations tested were 50-1.56 ug/ml (final concentration of pseudomycin). Actual concentrations of pseudomycins tested were 50, 25, 12.5, 6.25, 3.12 and 1.56 ug/ml. Each well was inoculated with the appropriate fungus. Unless noted, the fungal inoculum consisted of an ˜4 mm^2 piece of PDA with fungal mycelium. The exceptions were as follows. Ustilago maydis: this fungus grows much like a yeast on PDA, and cells were scraped from the PDA stock plate, resuspended in PDB and 10 ul inoculum added to each well. Monilinia sp.: this fungal mycelium grows as a very loose sheet on top of PDA and would not adhere to agar blocks. Fungal mycelium was ground with a metal rod in 500 ul PDB and 10 ul inoculum was added to each well. Mycosphaeella fijiensis, Septoria passerinii, Septoria triticii: these fungi all grow very slowly and the results were difficult to score if a small piece of agar with fungal mycelium on it was used as an inoculum. For these fungi, the mycelium was ground with a metal rod in 500 ul PDB and 10 ul inoculum was added to each well.
(§3) Wells were scored for fungal growth at two days and five days. Some slow growing fungi were scored at later days for growth because assessment was not possible at two or five days. Growth was scored by comparison to a control consisting of fungus inoculated into 990 ul potato dextrose broth and 10 ul of DMSO (Dimethylsulfoxide). An additional control consisting of fungal inoculum in PDB only was performed to ensure that the DMSO was not inhibitory to fungal growth.
(§4) For assays that were repeated, new stock solutions were made from a second shipment of pseudomycins. Note that pseudomycin B′ and depsipeptide stock solutions were remade from first shipment materials because these were not included in the second shipment. […] Actual concentrations of pseudomycins tested were 2, 1, 0.5, 0.25, 0.125 and 0.0625 ug/ml. A-PO4 and A-FB=pseudomycin A phosphate salt and free base respectively.
(§5) Table 2: Two day results—concentration indicated is lowest level of compound (ug /ml) that results is no growth. NI, no inhibition; p (partial), at least 50% inhibited; -, not determined. If number of assays was greater than one, number of assays performed on the fungus is noted in parentheses. For several slow-growing fungi, days elapsed before observation (if different than two) are noted.
(§6) Table 3: Five day results—concentration indicated is lowest level of compound (ug /ml) that results in no growth. NI, no inhibition; p (partial), at least 50% inhibited; -, not performed on the fungus is noted in parentheses. For several slow-growing fungi, days elapsed before observation (if different than five) are noted.

[1] = test system: Fusarium oxysporum cubense
Method: as §1, §2, §3, §4, §5, §6

Botrytis alli = conditions: 2x assays
Method: as §1, §2, §3, §4, §5, §6

Phytophthora ultimum = test system: Phytophthora ultimum
Method: as §1, §2, §3, §4, §5, §6

Fusarium culmorum = test system: Fusarium culmorum
Method: as §1, §2, §3, §4, §5, §6

Phytophthora parasitica = test system: Phytophthora parasitica
Method: as §1, §2, §3, §4, §5, §6

[2] = test system: Drechslera tritici-repentis
Method: as §1, §2, §3, §4, §5, §6

Verticillium dahliae = conditions: 2x assays
Method: as §1, §2, §3, §4, §5, §6

Phoma chrysamthecola = conditions: five day results
Method: as §1, §2, §3, §4, §5, §6

Tapesia yallundae = conditions: 2x assays
Method: as §1, §2, §3, §4, §5, §6

Cochliobolus carbonum = test system: Cochliobolus carbonum
Method: as §1, §2, §3, §4, §5, §6

Tapesia acuformis = conditions: 2x assays
Method: as §1, §2, §3, §4, §5, §6

Stagonospora nodorum = test system: Stagonospora nodorum
Method: as §1, §2, §3, §4, §5, §6

[3] = test system: Pestalotiopsis microspora NE-32
Method: as §1, §2, §3, §4, §5, §6

Diplodia natalensis = test system: Diplodia natalensis
Method: as §1, §2, §3, §4, §5, §6

Phytophthora cactorum = test system: Phytophthora cactorum
Method: as §1, §2, §3, §4, §5, §6

Fusarium avenaceum = test system: Fusarium avenaceum
Method: as §1, §2, §3, §4, §5, §6

Fusarium solani = test system: Fusarium solani
Method: as §1, §2, §3, §4, §5, §6

Aphanomyces sp. = conditions: 2x assays
Method: as §1, §2, §3, §4, §5, §6

Pseudomycin B
lowest level of compound that results in no growth (Sclerotinia sclerotiorum; five day results): NI
lowest level of compound that results in no growth (Sclerotinia sclerotiorum; two day results): p at 50
lowest level of compound that results in no growth ([1]; five day results): NI
lowest level of compound that results in no growth ([1]; two day results): NI
lowest level of compound that results in no growth (Botrytis alli; five day results): NI
lowest level of compound that results in no growth (Botrytis alli; two day results): NI
lowest level of compound that results in no growth (Phytophthora ultimum; five day results): NI
lowest level of compound that results in no growth (Phytophthora ultimum; two day results): NI
lowest level of compound that results in no growth (Fusarium culmorum; five day results): NI
lowest level of compound that results in no growth (Fusarium culmorum; two day results): NI
lowest level of compound that results in no growth (Phytophthora parasitica; five day results): NI
lowest level of compound that results in no growth (Phytophthora parasitica; two day results): NI
lowest level of compound that results in no growth ([2]; five day results): p at 50
lowest level of compound that results in no growth ([2]; two day results, 2x assays): 50 µg/mL
lowest level of compound that results in no growth (Verticillium dahliae; five day results): p at 50
lowest level of compound that results in no growth (Verticillium dahliae; two day results): 25 µg/mL
lowest level of compound that results in no growth (Phoma chrysamthecola): p at 50
lowest level of compound that results in no growth (Tapesia yallundae; five day results): NI
lowest level of compound that results in no growth (Tapesia yallundae; two day results): 25 µg/mL
lowest level of compound that results in no growth (Cochliobolus carbonum; five day results): NI
lowest level of compound that results in no growth (Cochliobolus carbonum; two day results): NI
lowest level of compound that results in no growth (Tapesia acuformis; five day results): NI
lowest level of compound that results in no growth (Tapesia acuformis; two day results): NI
lowest level of compound that results in no growth (Stagonospora nodorum; five day results): NI
lowest level of compound that results in no growth (Stagonospora nodorum; two day results): NI
lowest level of compound that results in no growth ([3]; five day results): p at 50
lowest level of compound that results in no growth ([3]; two day results): p at 50
lowest level of compound that results in no growth (Diplodia natalensis; five day results): NI
lowest level of compound that results in no growth (Diplodia natalensis; two day results): NI
lowest level of compound that results in no growth (Phytophthora cactorum; five day results): NI
lowest level of compound that results in no growth (Phytophthora cactorum; two day results): NI
lowest level of compound that results in no growth (Fusarium avenaceum; five day results): NI
lowest level of compound that results in no growth (Fusarium avenaceum; two day results): NI
lowest level of compound that results in no growth (Fusarium solani; five day results): NI
lowest level of compound that results in no growth (Fusarium solani; two day results): p at 50
lowest level of compound that results in no growth (Aphanomyces sp.; five day results): 50 µg/mL
lowest level of compound that results in no growth (Aphanomyces sp.; two day results): p at 50

Pseudomycin B′
lowest level of compound that results in no growth (Sclerotinia sclerotiorum; five day results): NI
lowest level of compound that results in no growth (Sclerotinia sclerotiorum; two day results): NI
lowest level of compound that results in no growth ([1]; five day results): NI
lowest level of compound that results in no growth ([1]; two day results): NI
lowest level of compound that results in no growth (Botrytis alli; five day results): NI
lowest level of compound that results in no growth (Botrytis alli; two day results): NI
lowest level of compound that results in no growth (Phytophthora ultimum; five day results): NI
lowest level of compound that results in no growth (Phytophthora ultimum; two day results): NI
lowest level of compound that results in no growth (Fusarium culmorum; five day results): NI
lowest level of compound that results in no growth (Fusarium culmorum; two day results): NI
lowest level of compound that results in no growth (Phytophthora parasitica; five day results): NI
lowest level of compound that results in no growth (Phytophthora parasitica; two day results): NI
lowest level of compound that results in no growth ([2]; five day results): p at 50
lowest level of compound that results in no growth ([2]; two day results, 2x assays): 50 µg/mL
lowest level of compound that results in no growth (Verticillium dahliae; five day results): NI
lowest level of compound that results in no growth (Verticillium dahliae; two day results): NI
lowest level of compound that results in no growth (Phoma chrysamthecola): p at 50
lowest level of compound that results in no growth (Tapesia yallundae; five day results): 50 µg/mL
lowest level of compound that results in no growth (Tapesia yallundae; two day results): 6.25 µg/mL
lowest level of compound that results in no growth (Cochliobolus carbonum; five day results): NI
lowest level of compound that results in no growth (Cochliobolus carbonum; two day results): NI
lowest level of compound that results in no growth (Tapesia acuformis; five day results): NI
lowest level of compound that results in no growth (Tapesia acuformis; two day results): NI
lowest level of compound that results in no growth (Stagonospora nodorum; five day results): NI
lowest level of compound that results in no growth (Stagonospora nodorum; two day results): NI
lowest level of compound that results in no growth ([3]; five day results): NI
lowest level of compound that results in no growth ([3]; two day results): NI
lowest level of compound that results in no growth (Diplodia natalensis; five day results): NI
lowest level of compound that results in no growth (Diplodia natalensis; two day results): NI
lowest level of compound that results in no growth (Phytophthora cactorum; five day results): NI
lowest level of compound that results in no growth (Phytophthora cactorum; two day results): NI
lowest level of compound that results in no growth (Fusarium avenaceum; five day results): NI
lowest level of compound that results in no growth (Fusarium avenaceum; two day results): NI
lowest level of compound that results in no growth (Fusarium solani; five day results): NI
lowest level of compound that results in no growth (Fusarium solani; two day results): NI
lowest level of compound that results in no growth (Aphanomyces sp.; five day results): NI
lowest level of compound that results in no growth (Aphanomyces sp.; two day results): 25 µg/mL
